The source made the active and inactive calls. The calls are words filed in the database; no cut-off is given here.
Key:
[1] = tested on: Rattus norvegicus; assay: Inhibition of Bz-ATP-induced IL-1beta release in po dosed Sprague-Dawley rat hippocampus preincubated for 1 hr followed by Bz-ATP challenge measured after 2 hrs by microdialysis method; assay type: functional, organism-based
[2] = Antagonist activity at P2X7 in dog whole blood assessed as inhibition of BzATP-induced IL-1beta release preincubated for 30 mins followed by BzATP addition measured after […] by ELISA; conditions: Canis lupus familiaris
[3] = Half life in cynomolgus monkey at 1 mg/kg, iv by LC-MS/MS analysis; assay type: ADME, organism-based, Macaca fascicularis; conditions: in vivo
[4] = target: P2X purinoceptor 4 (Homo sapiens) (UniProt Q99571); assay: Antagonist activity at P2X4 (unknown origin) assessed as inhibition of BzATP-induced calcium flux up to 10 uM preincubated for 30 mins followed by BzATP addition measured over 180 secs by FLIPR assay
[5] = target: P2X purinoceptor 7 (Mus musculus, UniProt Q9Z1M0); assay: Antagonist activity at mouse P2X7 assessed as inhibition of BzATP-induced calcium flux preincubated for 30 mins followed by BzATP addition measured over 180 secs by FLIPR assay
[6] = organism: Homo sapiens; assay: Toxicity in human at 0.5 to 600 mg
[7] = target: T1, Cytochrome P450 2C8 (Homo sapiens, UniProt P10632); assay: Inhibition of CYP2C8 in human liver microsomes using paclitaxel as substrate after 15 mins by LC-MS/MS analysis; assay type: ADME
T1 sequence (P10632 whole entry): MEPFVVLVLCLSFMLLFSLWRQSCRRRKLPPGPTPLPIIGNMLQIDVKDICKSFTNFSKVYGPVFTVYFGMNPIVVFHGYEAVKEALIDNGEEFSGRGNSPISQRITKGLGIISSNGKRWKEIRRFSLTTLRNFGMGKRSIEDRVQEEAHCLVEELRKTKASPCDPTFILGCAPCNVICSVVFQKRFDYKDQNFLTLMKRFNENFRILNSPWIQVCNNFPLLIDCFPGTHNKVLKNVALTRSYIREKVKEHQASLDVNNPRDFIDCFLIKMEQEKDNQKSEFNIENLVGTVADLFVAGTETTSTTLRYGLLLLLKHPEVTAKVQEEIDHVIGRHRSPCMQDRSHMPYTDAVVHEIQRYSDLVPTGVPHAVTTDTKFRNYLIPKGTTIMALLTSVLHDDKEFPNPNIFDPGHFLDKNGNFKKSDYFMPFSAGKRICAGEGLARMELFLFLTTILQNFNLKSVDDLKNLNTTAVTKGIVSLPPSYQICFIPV

[8] = tested on: Canis familiaris; assay: Ex vivo receptor occupancy at P2X7 in dog brain at 3 mg/kg, po after 96 hrs by autoradiography; assay type: functional, organism-based; conditions: Canis lupus familiaris
[9] = Apparent permeability across apical to basolateral side in human Caco2 cells; assay type: ADME, cell-based; conditions: Caco-2
[10] = Protein binding in rat brain at 5 uM after 5 hrs by equilibrium dialysis method; assay type: ADME, tissue-based; conditions: read-out: PB (converted)
[11] = tested on: Rattus norvegicus; assay: Drug uptake in rat at 62.5 to 250 mg/kg administered via oral gavage on day 1 and day 4; assay type: ADME, organism-based; conditions: in vivo

Sequence of P2X purinoceptor 7 (Q9Z1M0 whole entry): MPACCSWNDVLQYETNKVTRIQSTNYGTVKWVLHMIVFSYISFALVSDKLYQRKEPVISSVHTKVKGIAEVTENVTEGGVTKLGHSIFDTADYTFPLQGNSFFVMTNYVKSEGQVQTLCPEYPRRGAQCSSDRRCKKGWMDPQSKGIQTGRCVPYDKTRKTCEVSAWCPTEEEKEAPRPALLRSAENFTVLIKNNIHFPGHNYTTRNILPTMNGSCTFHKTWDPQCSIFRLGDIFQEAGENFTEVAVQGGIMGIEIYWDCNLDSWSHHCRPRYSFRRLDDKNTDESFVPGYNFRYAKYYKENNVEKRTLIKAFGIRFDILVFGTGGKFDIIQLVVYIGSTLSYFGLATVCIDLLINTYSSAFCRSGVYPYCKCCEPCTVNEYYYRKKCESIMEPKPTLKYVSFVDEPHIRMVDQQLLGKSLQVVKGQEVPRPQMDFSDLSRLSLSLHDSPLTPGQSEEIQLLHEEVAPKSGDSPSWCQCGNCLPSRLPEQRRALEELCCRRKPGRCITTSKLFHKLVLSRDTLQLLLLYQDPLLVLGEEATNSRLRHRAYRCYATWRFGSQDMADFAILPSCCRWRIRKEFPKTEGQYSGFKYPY
Sequence of P2X purinoceptor 4 (Homo sapiens) (Q99571 whole entry): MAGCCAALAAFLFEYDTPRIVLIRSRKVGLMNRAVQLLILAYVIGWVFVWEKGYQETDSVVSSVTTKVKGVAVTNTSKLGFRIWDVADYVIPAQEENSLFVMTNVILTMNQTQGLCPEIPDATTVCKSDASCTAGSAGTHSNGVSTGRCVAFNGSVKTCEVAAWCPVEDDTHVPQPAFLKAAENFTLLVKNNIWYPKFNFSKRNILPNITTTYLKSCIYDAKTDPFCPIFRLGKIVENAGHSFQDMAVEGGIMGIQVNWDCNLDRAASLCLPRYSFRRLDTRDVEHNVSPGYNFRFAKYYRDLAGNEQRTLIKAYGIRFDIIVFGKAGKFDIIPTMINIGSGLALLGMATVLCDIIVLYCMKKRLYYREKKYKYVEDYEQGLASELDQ

IC50 [2]: 158 nM
half-life [3]: 414 min
inhibition [4]: inactive
IC50 [5]: 15.8 nM
IC50 [7]: 9.6 µM
Papp A→B [9]: 75.3 ×10⁻⁶ cm/s
fraction unbound at 5 h, 5 µM [10]: 0.051
Drug uptake [11]: Active
Structure (SMILES): C[C@@H]1c2nnn(-c3ncc(F)cn3)c2CCN1C(=O)c1cccc(C(F)(F)F)c1Cl [JNJ-54175446]
inhibition [1]: Dose-dependent effect
Activity [6]: Non-Toxic
Occ [8]: Active
